Values belong to the compound of their own block, whether it stands above or below them.
How the values were obtained:
Test in all cases: radiometric filter-binding kinase assay
[1] = system: AKT2 (human), P31751 [S474D]
[2] = molecular target: BRSK2 (human) (UniProt Q8IWQ3)
[3] = molecular target: CAMKK2 (human) (UniProt Q96RR4)
[4] = molecular target: CLK2 (human) (UniProt P49760)
[5] = molecular target: CSK (human) (UniProt P41240)
[6] = molecular target: DAPK1 (human) (UniProt P53355)
[7] = molecular target: EPHA4 (human) (UniProt P54764)
Chain of EPHA4 (human) (P54764 whole entry, looked up): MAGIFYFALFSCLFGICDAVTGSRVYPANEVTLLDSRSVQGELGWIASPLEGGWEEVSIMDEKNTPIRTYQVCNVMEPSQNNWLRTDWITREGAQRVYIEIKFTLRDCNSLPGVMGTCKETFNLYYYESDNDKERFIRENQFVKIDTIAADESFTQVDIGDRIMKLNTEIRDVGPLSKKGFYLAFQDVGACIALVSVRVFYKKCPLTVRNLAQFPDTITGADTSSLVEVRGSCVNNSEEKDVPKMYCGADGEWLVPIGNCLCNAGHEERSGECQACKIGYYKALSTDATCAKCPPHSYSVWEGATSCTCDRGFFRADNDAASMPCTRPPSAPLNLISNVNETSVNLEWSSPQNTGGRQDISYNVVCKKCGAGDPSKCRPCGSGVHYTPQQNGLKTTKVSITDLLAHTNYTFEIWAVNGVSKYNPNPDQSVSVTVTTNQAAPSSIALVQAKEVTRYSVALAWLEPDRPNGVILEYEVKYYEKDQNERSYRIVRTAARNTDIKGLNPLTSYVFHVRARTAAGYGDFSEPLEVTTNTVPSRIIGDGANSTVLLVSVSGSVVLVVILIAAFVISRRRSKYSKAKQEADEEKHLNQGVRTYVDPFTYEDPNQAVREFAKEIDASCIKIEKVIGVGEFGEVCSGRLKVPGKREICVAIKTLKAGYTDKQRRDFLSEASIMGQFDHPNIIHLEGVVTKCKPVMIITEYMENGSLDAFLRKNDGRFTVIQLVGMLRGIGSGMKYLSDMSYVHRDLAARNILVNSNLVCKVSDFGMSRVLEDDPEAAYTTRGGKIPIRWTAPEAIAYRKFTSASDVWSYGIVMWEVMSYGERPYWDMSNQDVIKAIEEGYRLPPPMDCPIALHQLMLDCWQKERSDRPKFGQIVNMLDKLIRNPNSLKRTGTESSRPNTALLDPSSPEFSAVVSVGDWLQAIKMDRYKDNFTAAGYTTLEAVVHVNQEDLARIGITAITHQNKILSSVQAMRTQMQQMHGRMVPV

[8] = molecular target: EPHB1 (human) (UniProt P54762)
Chain of EPHB1 (human) (P54762 whole entry, looked up): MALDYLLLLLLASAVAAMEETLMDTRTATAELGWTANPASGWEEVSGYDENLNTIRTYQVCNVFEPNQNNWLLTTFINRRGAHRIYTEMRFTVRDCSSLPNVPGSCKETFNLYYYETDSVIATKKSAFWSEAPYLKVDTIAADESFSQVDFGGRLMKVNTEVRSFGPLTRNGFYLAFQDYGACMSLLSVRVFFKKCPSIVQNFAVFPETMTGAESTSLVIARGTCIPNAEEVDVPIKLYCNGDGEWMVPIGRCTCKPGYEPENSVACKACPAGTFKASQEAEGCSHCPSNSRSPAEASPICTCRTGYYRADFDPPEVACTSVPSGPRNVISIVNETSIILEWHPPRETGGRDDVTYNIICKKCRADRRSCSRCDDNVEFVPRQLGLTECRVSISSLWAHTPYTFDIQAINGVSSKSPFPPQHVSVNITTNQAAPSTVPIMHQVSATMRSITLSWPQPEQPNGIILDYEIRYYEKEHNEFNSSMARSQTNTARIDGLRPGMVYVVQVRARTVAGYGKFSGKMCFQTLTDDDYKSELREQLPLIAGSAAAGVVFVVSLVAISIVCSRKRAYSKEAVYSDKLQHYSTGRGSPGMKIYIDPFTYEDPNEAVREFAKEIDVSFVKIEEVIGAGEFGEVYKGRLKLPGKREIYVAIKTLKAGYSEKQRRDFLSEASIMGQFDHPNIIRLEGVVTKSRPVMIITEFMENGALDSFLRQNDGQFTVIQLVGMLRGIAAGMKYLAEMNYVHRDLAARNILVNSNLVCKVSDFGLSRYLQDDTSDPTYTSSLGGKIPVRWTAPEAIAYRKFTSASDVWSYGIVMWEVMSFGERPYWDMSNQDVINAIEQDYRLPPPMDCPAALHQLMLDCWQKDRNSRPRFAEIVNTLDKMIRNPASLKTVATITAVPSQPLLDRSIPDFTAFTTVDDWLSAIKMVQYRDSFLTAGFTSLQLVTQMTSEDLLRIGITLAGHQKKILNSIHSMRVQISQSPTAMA

[9] = molecular target: EPHB3 (human) (UniProt P54753)
[10] = molecular target: EPHB4 (human) (UniProt P54760)
[11] = molecular target: GSK3B (human) (UniProt P49841)
[12] = molecular target: HIPK1 (human) (UniProt Q86Z02)
[13] = molecular target: HIPK2 (human) (UniProt Q9H2X6)
[14] = molecular target: HIPK3 (human) (UniProt Q9H422)
[15] = molecular target: IGF1R (human) (UniProt P08069)
[16] = molecular target: INSR (human) (UniProt P06213)
[17] = system: LCK (mouse); conditions: accession and sequence are those of the human protein
[18] = molecular target: MAP3K1 (human) (UniProt Q13233)
[19] = molecular target: MAP3K5 (human) (UniProt Q99683)
[20] = molecular target: MAP3K7 TAB1 (human) (UniProt Q15750+O43318)
[21] = molecular target: MAP3K9 (human) (UniProt P80192)
Chain of MAP3K9 (human) (P80192 whole entry, looked up): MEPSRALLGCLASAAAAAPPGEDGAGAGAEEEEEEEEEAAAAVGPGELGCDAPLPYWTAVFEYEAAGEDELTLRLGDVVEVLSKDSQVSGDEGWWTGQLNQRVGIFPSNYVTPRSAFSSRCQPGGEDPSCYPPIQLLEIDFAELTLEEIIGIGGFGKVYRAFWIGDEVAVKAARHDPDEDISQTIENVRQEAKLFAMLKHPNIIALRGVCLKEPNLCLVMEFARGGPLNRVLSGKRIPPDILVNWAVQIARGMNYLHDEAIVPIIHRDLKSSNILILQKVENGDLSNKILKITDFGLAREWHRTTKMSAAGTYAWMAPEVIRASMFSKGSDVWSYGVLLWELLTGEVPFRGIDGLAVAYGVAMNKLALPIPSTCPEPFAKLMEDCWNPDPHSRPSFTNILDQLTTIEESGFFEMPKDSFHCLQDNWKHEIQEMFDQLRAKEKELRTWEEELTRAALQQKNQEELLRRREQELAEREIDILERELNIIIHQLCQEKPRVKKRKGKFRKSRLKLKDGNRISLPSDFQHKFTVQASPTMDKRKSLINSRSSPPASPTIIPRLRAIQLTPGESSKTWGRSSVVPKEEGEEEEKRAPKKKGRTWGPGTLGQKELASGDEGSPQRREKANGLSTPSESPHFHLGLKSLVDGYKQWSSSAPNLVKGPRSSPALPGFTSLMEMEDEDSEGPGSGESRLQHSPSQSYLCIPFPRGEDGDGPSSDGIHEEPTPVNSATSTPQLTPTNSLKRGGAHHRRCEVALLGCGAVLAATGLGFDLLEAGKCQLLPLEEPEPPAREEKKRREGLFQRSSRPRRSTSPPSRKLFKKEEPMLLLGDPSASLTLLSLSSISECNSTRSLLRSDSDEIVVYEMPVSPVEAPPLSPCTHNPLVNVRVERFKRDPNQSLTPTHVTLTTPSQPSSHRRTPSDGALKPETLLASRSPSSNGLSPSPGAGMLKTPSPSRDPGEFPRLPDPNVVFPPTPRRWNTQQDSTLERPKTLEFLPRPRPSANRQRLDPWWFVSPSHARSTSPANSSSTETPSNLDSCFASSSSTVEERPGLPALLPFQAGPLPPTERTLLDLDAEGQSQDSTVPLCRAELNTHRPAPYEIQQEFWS

[22] = molecular target: MAPK1 (human) (UniProt P28482)
[23] = molecular target: MAPK11 (human) (UniProt Q15759)
[24] = molecular target: MAPK13 (human) (UniProt O15264)
[25] = molecular target: MARK4 (human) (UniProt Q96L34)
[26] = molecular target: PAK6 (human) (UniProt Q9NQU5)
Chain of PAK6 (human) (Q9NQU5 whole entry, looked up): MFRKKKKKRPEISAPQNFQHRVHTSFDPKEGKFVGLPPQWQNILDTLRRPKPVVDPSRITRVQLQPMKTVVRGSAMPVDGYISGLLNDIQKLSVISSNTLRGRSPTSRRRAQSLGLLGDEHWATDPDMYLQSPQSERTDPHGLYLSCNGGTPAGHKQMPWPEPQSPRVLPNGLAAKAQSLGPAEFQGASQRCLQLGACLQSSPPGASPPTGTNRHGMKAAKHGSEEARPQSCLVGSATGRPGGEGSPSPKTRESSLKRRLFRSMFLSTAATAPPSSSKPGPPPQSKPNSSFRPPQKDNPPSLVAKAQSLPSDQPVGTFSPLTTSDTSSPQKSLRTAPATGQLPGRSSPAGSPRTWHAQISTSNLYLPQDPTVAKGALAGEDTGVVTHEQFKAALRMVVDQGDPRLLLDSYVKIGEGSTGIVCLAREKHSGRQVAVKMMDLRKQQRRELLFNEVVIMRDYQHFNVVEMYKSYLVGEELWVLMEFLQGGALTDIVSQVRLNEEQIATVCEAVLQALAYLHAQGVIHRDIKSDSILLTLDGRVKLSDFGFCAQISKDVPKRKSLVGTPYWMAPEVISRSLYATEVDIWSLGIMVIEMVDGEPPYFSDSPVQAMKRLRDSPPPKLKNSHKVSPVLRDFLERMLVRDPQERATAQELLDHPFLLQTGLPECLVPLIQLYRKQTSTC

[27] = molecular target: PAK7 (human) (UniProt Q9P286)
[28] = molecular target: PKN2 (human) (UniProt Q16513)
[29] = molecular target: PLK1 (human) (UniProt P53350)
[30] = system: PRKAA1 or PRKAA2 (rat); conditions: accession and sequence are those of the human protein
[31] = molecular target: PRKCZ (human) (UniProt Q05513)
[32] = system: ROCK2 (rat); conditions: accession and sequence are those of the human protein
[33] = molecular target: RPS6KA5 KD1 KD2 (human) (UniProt O75582)
Chain of RPS6KA5 KD1 KD2 (human) (O75582 whole entry, looked up): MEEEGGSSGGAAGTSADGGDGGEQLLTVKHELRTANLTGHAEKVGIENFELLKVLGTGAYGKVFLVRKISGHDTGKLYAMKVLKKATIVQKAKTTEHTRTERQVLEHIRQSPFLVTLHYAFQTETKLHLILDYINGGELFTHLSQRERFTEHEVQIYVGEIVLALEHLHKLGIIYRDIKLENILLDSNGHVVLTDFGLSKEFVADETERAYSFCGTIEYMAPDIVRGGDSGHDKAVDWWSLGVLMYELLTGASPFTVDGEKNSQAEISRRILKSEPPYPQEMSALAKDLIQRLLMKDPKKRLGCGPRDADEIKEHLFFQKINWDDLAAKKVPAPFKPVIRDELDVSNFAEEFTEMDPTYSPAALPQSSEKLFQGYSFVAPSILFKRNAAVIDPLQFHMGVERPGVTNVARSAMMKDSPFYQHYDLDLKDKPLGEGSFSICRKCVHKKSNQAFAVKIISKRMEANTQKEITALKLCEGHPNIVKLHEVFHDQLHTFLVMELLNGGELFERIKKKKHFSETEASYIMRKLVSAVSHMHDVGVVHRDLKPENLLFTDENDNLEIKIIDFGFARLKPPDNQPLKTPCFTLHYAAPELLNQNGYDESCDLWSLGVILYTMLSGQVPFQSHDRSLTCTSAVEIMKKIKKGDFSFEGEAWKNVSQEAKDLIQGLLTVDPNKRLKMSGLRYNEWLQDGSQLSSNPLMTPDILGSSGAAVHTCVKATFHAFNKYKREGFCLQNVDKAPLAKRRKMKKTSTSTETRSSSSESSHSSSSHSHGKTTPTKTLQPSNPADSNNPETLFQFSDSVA

[34] = molecular target: SRC (human) (UniProt P12931)
[35] = molecular target: SYK (human) (UniProt P43405)
[36] = molecular target: YES1 (human) (UniProt P07947)
Chain of YES1 (human) (P07947 whole entry, looked up): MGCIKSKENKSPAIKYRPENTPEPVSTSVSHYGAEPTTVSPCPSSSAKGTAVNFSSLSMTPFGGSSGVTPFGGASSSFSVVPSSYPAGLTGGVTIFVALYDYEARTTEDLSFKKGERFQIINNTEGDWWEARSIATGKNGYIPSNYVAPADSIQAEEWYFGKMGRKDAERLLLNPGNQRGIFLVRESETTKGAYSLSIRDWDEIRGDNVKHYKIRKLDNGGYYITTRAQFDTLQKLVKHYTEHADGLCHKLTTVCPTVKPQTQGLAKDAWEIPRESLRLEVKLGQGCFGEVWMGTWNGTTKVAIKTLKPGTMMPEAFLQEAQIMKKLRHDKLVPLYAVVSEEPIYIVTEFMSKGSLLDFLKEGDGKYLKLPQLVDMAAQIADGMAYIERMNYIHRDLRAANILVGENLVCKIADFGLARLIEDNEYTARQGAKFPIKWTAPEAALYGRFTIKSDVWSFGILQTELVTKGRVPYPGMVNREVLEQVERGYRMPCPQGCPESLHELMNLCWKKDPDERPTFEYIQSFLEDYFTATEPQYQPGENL

residual activity ([1]; compound 0.01 µM): 109% | residual activity ([1]; compound 0.1 µM): 51% | residual activity ([1]; compound 1.0 µM): 8% | residual activity ([2]; compound 0.01 µM): 16% | residual activity ([2]; compound 0.1 µM): 10% | residual activity ([2]; compound 1.0 µM): 8% | residual activity ([3]; compound 0.01 µM): 64% | residual activity ([3]; compound 0.1 µM): 14% | residual activity ([3]; compound 1.0 µM): 11% | residual activity ([4]; compound 0.01 µM): 9% | residual activity ([4]; compound 0.1 µM): -1% | residual activity ([4]; compound 1.0 µM): -1% | residual activity ([5]; compound 0.01 µM): 112% | residual activity ([5]; compound 0.1 µM): 73% | residual activity ([5]; compound 1.0 µM): 20% | residual activity ([6]; compound 0.01 µM): 51% | residual activity ([6]; compound 0.1 µM): 18% | residual activity ([6]; compound 1.0 µM): 4% | residual activity ([7]; compound 0.01 µM): 95% | residual activity ([7]; compound 0.1 µM): 61% | residual activity ([7]; compound 1.0 µM): 16% | residual activity ([8]; compound 0.01 µM): 41% | residual activity ([8]; compound 0.1 µM): 56% | residual activity ([8]; compound 1.0 µM): 25% | residual activity ([9]; compound 0.01 µM): 106% | residual activity ([9]; compound 0.1 µM): 100% | residual activity ([9]; compound 1.0 µM): 83% | residual activity ([10]; compound 0.01 µM): 102% | residual activity ([10]; compound 0.1 µM): 60% | residual activity ([10]; compound 1.0 µM): 8% | residual activity ([11]; compound 0.01 µM): 51% | residual activity ([11]; compound 0.1 µM): 15% | residual activity ([11]; compound 1.0 µM): 7% | residual activity ([12]; compound 0.01 µM): 98% | residual activity ([12]; compound 0.1 µM): 82% | residual activity ([12]; compound 1.0 µM): 22% | residual activity ([13]; compound 0.01 µM): 85% | residual activity ([13]; compound 0.1 µM): 30% | residual activity ([13]; compound 1.0 µM): 6% | residual activity ([14]; compound 0.01 µM): 83% | residual activity ([14]; compound 0.1 µM): 43% | residual activity ([14]; compound 1.0 µM): 10% | residual activity ([15]; compound 0.01 µM): 87% | residual activity ([15]; compound 0.1 µM): 64% | residual activity ([15]; compound 1.0 µM): 3% | residual activity ([16]; compound 0.01 µM): 120% | residual activity ([16]; compound 0.1 µM): 76% | residual activity ([16]; compound 1.0 µM): 11% | residual activity ([17]; compound 0.01 µM): 44% | residual activity ([17]; compound 0.1 µM): 13% | residual activity ([17]; compound 1.0 µM): 3% | residual activity ([18]; compound 0.01 µM): 97% | residual activity ([18]; compound 0.1 µM): 78% | residual activity ([18]; compound 1.0 µM): 23% | residual activity ([19]; compound 0.01 µM): 113% | residual activity ([19]; compound 0.1 µM): 15% | residual activity ([19]; compound 1.0 µM): 2% | residual activity ([20]; compound 0.01 µM): 111% | residual activity ([20]; compound 0.1 µM): 2% | residual activity ([20]; compound 1.0 µM): 2% | residual activity ([21]; compound 0.01 µM): 3% | residual activity ([21]; compound 0.1 µM): 2% | residual activity ([21]; compound 1.0 µM): 2% | residual activity ([22]; compound 0.01 µM): 22% | residual activity ([22]; compound 0.1 µM): 6% | residual activity ([22]; compound 1.0 µM): 5% | residual activity ([23]; compound 0.01 µM): 108% | residual activity ([23]; compound 0.1 µM): 96% | residual activity ([23]; compound 1.0 µM): 79% | residual activity ([24]; compound 0.01 µM): 100% | residual activity ([24]; compound 0.1 µM): 97% | residual activity ([24]; compound 1.0 µM): 48% | residual activity ([25]; compound 0.01 µM): 10% | residual activity ([25]; compound 0.1 µM): 2% | residual activity ([25]; compound 1.0 µM): 1% | residual activity ([26]; compound 0.01 µM): 29% | residual activity ([26]; compound 0.1 µM): 2% | residual activity ([26]; compound 1.0 µM): 1% | residual activity ([27]; compound 0.01 µM): 17% | residual activity ([27]; compound 0.1 µM): 4% | residual activity ([27]; compound 1.0 µM): 2% | residual activity ([28]; compound 0.01 µM): 21% | residual activity ([28]; compound 0.1 µM): 8% | residual activity ([28]; compound 1.0 µM): 6% | residual activity ([29]; compound 0.01 µM): 68% | residual activity ([29]; compound 0.1 µM): 38% | residual activity ([29]; compound 1.0 µM): 22% | residual activity ([30]; compound 0.01 µM): 6% | residual activity ([30]; compound 0.1 µM): 2% | residual activity ([30]; compound 1.0 µM): 1% | residual activity ([31]; compound 0.01 µM): 110% | residual activity ([31]; compound 0.1 µM): 56% | residual activity ([31]; compound 1.0 µM): 15% | residual activity ([32]; compound 0.01 µM): 82% | residual activity ([32]; compound 1.0 µM): 7% | residual activity ([33]; compound 0.01 µM): 41% | residual activity ([33]; compound 0.1 µM): 10% | residual activity ([33]; compound 1.0 µM): 2% | residual activity ([34]; compound 0.01 µM): 78% | residual activity ([34]; compound 0.1 µM): 19% | residual activity ([34]; compound 1.0 µM): 6% | residual activity ([35]; compound 0.01 µM): 21% | residual activity ([35]; compound 0.1 µM): 6% | residual activity ([35]; compound 1.0 µM): 2% | residual activity ([36]; compound 0.01 µM): 76% | residual activity ([36]; compound 0.1 µM): 20% | residual activity ([36]; compound 1.0 µM): 2%
Structure (SMILES): CNC(=O)C1[C@H]2O[C@@](C)([C@@H]1N)n1c3ccccc3c3c4c(c5c6ccccc6n2c5c31)C(=O)NC4 (stereo partly drawn)

residual activity ([1]; compound 1.0 µM): 109% | residual activity ([1]; compound 10.0 µM): 108% | residual activity ([2]; compound 1.0 µM): 100% | residual activity ([2]; compound 10.0 µM): 86% | residual activity ([3]; compound 1.0 µM): 92% | residual activity ([3]; compound 10.0 µM): 73% | residual activity ([4]; compound 1.0 µM): 81% | residual activity ([4]; compound 10.0 µM): 77% | residual activity ([5]; compound 1.0 µM): 148% | residual activity ([5]; compound 10.0 µM): 119% | residual activity ([6]; compound 1.0 µM): 85% | residual activity ([6]; compound 10.0 µM): 60% | residual activity ([7]; compound 10.0 µM): 107% | residual activity ([8]; compound 1.0 µM): 118% | residual activity ([8]; compound 10.0 µM): 103% | residual activity ([9]; compound 10.0 µM): 83% | residual activity ([10]; compound 1.0 µM): 93% | residual activity ([10]; compound 10.0 µM): 79% | residual activity ([11]; compound 1.0 µM): 90% | residual activity ([11]; compound 10.0 µM): 74% | residual activity ([12]; compound 1.0 µM): 90% | residual activity ([12]; compound 10.0 µM): 95% | residual activity ([13]; compound 1.0 µM): 100% | residual activity ([13]; compound 10.0 µM): 98% | residual activity ([14]; compound 1.0 µM): 108% | residual activity ([14]; compound 10.0 µM): 119% | residual activity ([15]; compound 1.0 µM): 93% | residual activity ([15]; compound 10.0 µM): 89% | residual activity ([16]; compound 1.0 µM): 102% | residual activity ([16]; compound 10.0 µM): 96% | residual activity ([17]; compound 1.0 µM): 110% | residual activity ([17]; compound 10.0 µM): 102% | residual activity ([18]; compound 1.0 µM): 106% | residual activity ([18]; compound 10.0 µM): 96% | residual activity ([19]; compound 10.0 µM): 127% | residual activity ([20]; compound 1.0 µM): 88% | residual activity ([20]; compound 10.0 µM): 81% | residual activity ([21]; compound 1.0 µM): 69% | residual activity ([21]; compound 10.0 µM): 47% | residual activity ([22]; compound 1.0 µM): 105% | residual activity ([23]; compound 1.0 µM): 84% | residual activity ([23]; compound 10.0 µM): 91% | residual activity ([24]; compound 1.0 µM): 103% | residual activity ([24]; compound 10.0 µM): 97% | residual activity ([25]; compound 1.0 µM): 96% | residual activity ([25]; compound 10.0 µM): 85% | residual activity ([26]; compound 1.0 µM): 97% | residual activity ([26]; compound 10.0 µM): 107% | residual activity ([27]; compound 1.0 µM): 101% | residual activity ([27]; compound 10.0 µM): 88% | residual activity ([28]; compound 1.0 µM): 120% | residual activity ([29]; compound 1.0 µM): 94% | residual activity ([29]; compound 10.0 µM): 91% | residual activity ([30]; compound 1.0 µM): 92% | residual activity ([30]; compound 10.0 µM): 83% | residual activity ([31]; compound 1.0 µM): 93% | residual activity ([31]; compound 10.0 µM): 96% | residual activity ([32]; compound 1.0 µM): 96% | residual activity ([32]; compound 10.0 µM): 80% | residual activity ([33]; compound 1.0 µM): 94% | residual activity ([33]; compound 10.0 µM): 102% | residual activity ([34]; compound 1.0 µM): 97% | residual activity ([34]; compound 10.0 µM): 78% | residual activity ([35]; compound 1.0 µM): 158% | residual activity ([35]; compound 10.0 µM): 117% | residual activity ([36]; compound 1.0 µM): 117%
Structure (SMILES): Cc1nc(-c2ccc(OCC(C)C)c(C#N)c2)sc1C(=O)O

— the kinase profiling compilation of Christmann-Franck et al. (2016)
